Results from PubChem BioAssay (NCI).
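Interpolation was linear, between the two tested concentrations surrounding the appropriate level; five concentrations were tested over 48 hours in 96-well plates. GI50 is the concentration that inhibits growth by half. The concentration for full growth arrest is given as TGI.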

What was measured:
Experiment in all cases: NCI-60 cell line screen, 48 h
SK-MEL-2 melanoma = system: SK-MEL-2 melanoma
UACC-62 melanoma = system: UACC-62 melanoma
NCI-H226 lung = system: NCI-H226 lung
A498 renal = system: A498 renal
SW-620 colon = system: SW-620 colon
OVCAR-5 ovarian = system: OVCAR-5 ovarian
SK-OV-3 ovarian = system: SK-OV-3 ovarian
OVCAR-8 ovarian = system: OVCAR-8 ovarian
SF-268 CNS = system: SF-268 CNS
HCT-116 colon = system: HCT-116 colon
SF-295 CNS = system: SF-295 CNS
DU-145 prostate = system: DU-145 prostate
EKVX NSCLC = system: EKVX NSCLC
SF-539 CNS = system: SF-539 CNS
OVCAR-3 ovarian = system: OVCAR-3 ovarian
RPMI-8226 leukemia = system: RPMI-8226 leukemia
LOX IMVI melanoma = system: LOX IMVI melanoma
KM12 colon = system: KM12 colon
NCI/ADR-RES ovarian = system: NCI/ADR-RES ovarian
OVCAR-4 ovarian = system: OVCAR-4 ovarian
ACHN renal = system: ACHN renal
T-47D breast = system: T-47D breast
MDA-MB-231 breast = system: MDA-MB-231 breast
MCF7 breast = system: MCF7 breast
U251 CNS = system: U251 CNS
MOLT-4 leukemia = system: MOLT-4 leukemia
MDA-MB-435 = system: MDA-MB-435
HCC-2998 colon = system: HCC-2998 colon
SNB-75 CNS = system: SNB-75 CNS
NCI-H23 lung = system: NCI-H23 lung
HOP-92 NSCLC = system: HOP-92 NSCLC
TK-10 renal = system: TK-10 renal
CAKI-1 renal = system: CAKI-1 renal
HCT-15 colon = system: HCT-15 colon
HOP-62 NSCLC = system: HOP-62 NSCLC
NCI-H460 lung = system: NCI-H460 lung
SNB-19 CNS = system: SNB-19 CNS
HT29 colon = system: HT29 colon
M14 melanoma = system: M14 melanoma
A549 NSCLC = system: A549 NSCLC
PC-3 prostate = system: PC-3 prostate
786-0 renal = system: 786-0 renal
CCRF-CEM leukemia = system: CCRF-CEM leukemia
BT-549 breast = system: BT-549 breast
MALME-3M melanoma = system: MALME-3M melanoma
SK-MEL-28 melanoma = system: SK-MEL-28 melanoma
SK-MEL-5 melanoma = system: SK-MEL-5 melanoma
UO-31 renal = system: UO-31 renal
HL-60(TB) leukemia = system: HL-60(TB) leukemia
COLO 205 colon = system: COLO 205 colon
IGROV1 ovarian = system: IGROV1 ovarian
HS 578T breast = system: HS 578T breast
K-562 leukemia = system: K-562 leukemia
NCI-H522 lung = system: NCI-H522 lung
RXF 393 renal = system: RXF 393 renal
SR leukemia = system: SR leukemia
SN12C renal = system: SN12C renal

`Cc1cc(C)c(S(=O)(=O)N(CCc2cccc(Br)c2)Cc2ccc(-c3cccc(S(C)(=O)=O)c3)cc2)c(C)c1` gave a GI50 (SK-MEL-2 melanoma) of over 100 µM, a TGI (SK-MEL-2 melanoma) of over 100 µM and a GI50 (UACC-62 melanoma) of over 100 µM. For the same compound, the TGI (UACC-62 melanoma) was over 100 µM, the GI50 (NCI-H226 lung) was over 100 µM and the TGI (NCI-H226 lung) was over 100 µM. It also gave a GI50 (A498 renal) of over 100 µM, a TGI (A498 renal) of over 100 µM and a GI50 (SW-620 colon) of over 100 µM. The TGI (SW-620 colon) was over 100 µM, the GI50 (OVCAR-5 ovarian) was over 100 µM and the TGI (OVCAR-5 ovarian) was over 100 µM. For the same compound, the GI50 (SK-OV-3 ovarian) was over 100 µM, the TGI (SK-OV-3 ovarian) was over 100 µM and the GI50 (OVCAR-8 ovarian) was over 100 µM. For the same compound, the TGI (OVCAR-8 ovarian) was over 100 µM, the GI50 (SF-268 CNS) was over 100 µM and the TGI (SF-268 CNS) was over 100 µM. For the same compound, the GI50 (HCT-116 colon) was over 100 µM, the TGI (HCT-116 colon) was over 100 µM and the GI50 (SF-295 CNS) was over 100 µM. It also gave a TGI (SF-295 CNS) of over 100 µM, a GI50 (DU-145 prostate) of over 100 µM and a TGI (DU-145 prostate) of over 100 µM. It also gave a GI50 (EKVX NSCLC) of over 100 µM, a TGI (EKVX NSCLC) of over 100 µM and a GI50 (SF-539 CNS) of over 100 µM. For the same compound, the TGI (SF-539 CNS) was over 100 µM, the GI50 (OVCAR-3 ovarian) was over 100 µM and the TGI (OVCAR-3 ovarian) was over 100 µM. The GI50 (RPMI-8226 leukemia) was over 100 µM, the TGI (RPMI-8226 leukemia) was over 100 µM and the GI50 (LOX IMVI melanoma) was over 100 µM. It also gave a TGI (LOX IMVI melanoma) of over 100 µM, a GI50 (KM12 colon) of over 100 µM and a TGI (KM12 colon) of over 100 µM. The GI50 (NCI/ADR-RES ovarian) was over 100 µM, the TGI (NCI/ADR-RES ovarian) was over 100 µM and the GI50 (OVCAR-4 ovarian) was over 100 µM. The TGI (OVCAR-4 ovarian) was over 100 µM, the GI50 (ACHN renal) was over 100 µM and the TGI (ACHN renal) was over 100 µM. It also gave a GI50 (T-47D breast) of over 100 µM, a TGI (T-47D breast) of over 100 µM and a GI50 (MDA-MB-231 breast) of over 100 µM. It also gave a TGI (MDA-MB-231 breast) of over 100 µM, a GI50 (MCF7 breast) of over 100 µM and a TGI (MCF7 breast) of over 100 µM. For the same compound, the GI50 (U251 CNS) was over 100 µM, the TGI (U251 CNS) was over 100 µM and the GI50 (MOLT-4 leukemia) was over 100 µM. For the same compound, the TGI (MOLT-4 leukemia) was over 100 µM, the GI50 (MDA-MB-435) was over 100 µM and the TGI (MDA-MB-435) was over 100 µM. For the same compound, the GI50 (HCC-2998 colon) was over 100 µM, the TGI (HCC-2998 colon) was over 100 µM and the GI50 (SNB-75 CNS) was over 100 µM. It also gave a TGI (SNB-75 CNS) of over 100 µM, a GI50 (NCI-H23 lung) of over 100 µM and a TGI (NCI-H23 lung) of over 100 µM. It also gave a GI50 (HOP-92 NSCLC) of over 100 µM, a TGI (HOP-92 NSCLC) of over 100 µM and a GI50 (TK-10 renal) of over 100 µM. For the same compound, the TGI (TK-10 renal) was over 100 µM, the GI50 (CAKI-1 renal) was over 100 µM and the TGI (CAKI-1 renal) was over 100 µM. The GI50 (HCT-15 colon) was over 100 µM, the TGI (HCT-15 colon) was over 100 µM and the GI50 (HOP-62 NSCLC) was over 100 µM. For the same compound, the TGI (HOP-62 NSCLC) was over 100 µM, the GI50 (NCI-H460 lung) was over 100 µM and the TGI (NCI-H460 lung) was over 100 µM. It also gave a GI50 (SNB-19 CNS) of over 100 µM, a TGI (SNB-19 CNS) of over 100 µM and a GI50 (HT29 colon) of over 100 µM. The TGI (HT29 colon) was over 100 µM, the GI50 (M14 melanoma) was over 100 µM and the TGI (M14 melanoma) was over 100 µM. The GI50 (A549 NSCLC) was over 100 µM, the TGI (A549 NSCLC) was over 100 µM and the GI50 (PC-3 prostate) was over 100 µM. For the same compound, the TGI (PC-3 prostate) was over 100 µM, the GI50 (786-0 renal) was over 100 µM and the TGI (786-0 renal) was over 100 µM. For the same compound, the GI50 (CCRF-CEM leukemia) was over 100 µM, the TGI (CCRF-CEM leukemia) was over 100 µM and the GI50 (BT-549 breast) was over 100 µM. For the same compound, the TGI (BT-549 breast) was over 100 µM, the GI50 (MALME-3M melanoma) was over 100 µM and the TGI (MALME-3M melanoma) was over 100 µM. It also gave a GI50 (SK-MEL-28 melanoma) of over 100 µM, a TGI (SK-MEL-28 melanoma) of over 100 µM and a GI50 (SK-MEL-5 melanoma) of over 100 µM. For the same compound, the TGI (SK-MEL-5 melanoma) was over 100 µM, the GI50 (UO-31 renal) was over 100 µM and the TGI (UO-31 renal) was over 100 µM. The GI50 (HL-60(TB) leukemia) was over 100 µM, the TGI (HL-60(TB) leukemia) was over 100 µM and the GI50 (COLO 205 colon) was over 100 µM. It also gave a TGI (COLO 205 colon) of over 100 µM, a GI50 (IGROV1 ovarian) of over 100 µM and a TGI (IGROV1 ovarian) of over 100 µM. For the same compound, the GI50 (HS 578T breast) was over 100 µM, the TGI (HS 578T breast) was over 100 µM and the GI50 (K-562 leukemia) was over 100 µM. The TGI (K-562 leukemia) was over 100 µM, the GI50 (NCI-H522 lung) was over 100 µM and the TGI (NCI-H522 lung) was over 100 µM. It also gave a GI50 (RXF 393 renal) of over 100 µM, a TGI (RXF 393 renal) of over 100 µM and a GI50 (SR leukemia) of over 100 µM. It also gave a TGI (SR leukemia) of over 100 µM, a GI50 (SN12C renal) of over 100 µM and a TGI (SN12C renal) of over 100 µM.
